Test results from patent US20210330611A1, “THERAPY FOR NEUROLOGICAL DISEASES/DISORDERS” (priority 2020, published 2021).
“And” between values parts separate entries of the source, which are not always exact repeats. Equal values may be shown once. Where a name gives a salt, the structure may show the parent alone. Read-outs that look alike come from different tables or passages of the source.

Tests used:
[1] = test system: fibrin-induced microglia activation; assay: Image-based assay of fibrin-induced microglia activation (HTS and dose response); format: cell-based, rat; details: primary microglia HTS, fibrin stimulation; for inhibition at 10 µM: Rattus norvegicus, Microglia, read-out: Fibrin % inhibition
[2] = test system: LPS-induced microglia activation; assay: Image-based assay of LPS-induced microglia activation (HTS and dose response); format: cell-based, rat; details: for inhibition at 10 µM: Rattus norvegicus, Microglia, read-out: LPS % inhibition
[3] = test system: fibrin- and LPS-induced microglia activation; assay: cells; format: cell-based, rat
primary rat microglia [4] = test system: primary rat microglia
primary rat microglia [5] = assay: Cell toxicity (dead cells, size <150 μm2) in coated fibrin (cFib) assay; details: primary microglia HTS;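 note: share of dead cells sized under 150 µm2 at 10 µM in fibrin-stimulated microglia HTS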
[6] = primary microglia HTS, LPS stimulation, compounds at 10 μM
[7] = quadrant by fibrin and LPS inhibition, HTS at 10 μM
[8] = fibrin assay, dead cells (size <150 μm2)
[9] = classification by fibrin and LPS inhibition, HTS at 10 μM
[10] = fibrin assay, dead cells (size <150 μm2), compounds at 10 μM
[11] = cell size >800 μm2 as marker of activation
[12] = classification by fibrin and LPS inhibition in HTS
[13] = fibrin stimulation, cell size <150 μm2 as marker of toxicity
[14] = primary microglia HTS, LPS stimulation, compounds at 10 μM, 10 µM

SMILES	Fibrin % inhibition ([1]; compounds at 10 μM) [%]	LPS % inhibition [2, 6] [%]	Quadrant (FIG. 5b) [3, 7]	LPS % cell toxicity (primary rat microglia [4]) [%]	Fibrin % cell toxicity (primary rat microglia [5]; [8])	inhibition at 10 µM ([1]; compounds at 10 μM) [%]	inhibition at 10 µM [2, 6] [%]	LPS % cell toxicity (primary rat microglia [4]; rat) [%]	further results
CC1=NN(c2ccccc2)C(=O)C1	−15	15	Q4	0	1%	–	–	–	–
CN(C)CC[C@@H](c1ccc(Br)cc1)c1ccccn1	0	10	–	0	–	–	–	–	Quadrant (FIG. 5b) [3, 9]: Q4; Fibrin % cell toxicity (primary rat microglia [5]; [10]): 0%
O=C(O)CN(CCN(CC(=O)O)CC(=O)O)CCN(CC(=O)O)CC(=O)O	–	–	–	0	–	–	–	–	Fibrin % inhibition [1, 11]: 11%; LPS % inhibition [2]: −2%; Quadrant (FIG. 5b) [3, 12]: Q4; Fibrin % cell toxicity (primary rat microglia [5]; [13]): 0%
COc1ccc(C[C@H](N)C(=O)N[C@H]2[C@@H](O)[C@H](n3cnc4c(N(C)C)ncnc43)O[C@@H]2CO)cc1.Cl.Cl	–	124	Q2	52	66%	–	–	–	–
CCCC(C(=O)OCCN(CC)CC)(c1ccccc1)c1ccccc1.Cl	–	–	–	0	–	–	–	–	Fibrin % inhibition [1, 11]: −10%; LPS % inhibition [2]: 5%; Quadrant (FIG. 5b) [3, 12]: Q4; Fibrin % cell toxicity (primary rat microglia [5]; [13]): 0%
C[C@H](CCC(=O)[O-])[C@H]1CC[C@H]2[C@@H]3C(=O)C[C@@H]4CC(=O)CC[C@]4(C)[C@H]3CC(=O)[C@]12C.[Na+]	–	–	–	1	–	–	–	–	Fibrin % inhibition [1, 11]: 21%; LPS % inhibition [2]: 28%; Quadrant (FIG. 5b) [3, 12]: Q4; Fibrin % cell toxicity (primary rat microglia [5]; [13]): 1%
Cl.NCC(O)c1ccc(O)cc1 (racemic)	−48	16	Q4	0	1%	–	–	–	–
CCC1(c2ccc(N)cc2)CCC(=O)NC1=O (racemic)	3	6	Q4	0	0%	–	–	–	–
NCC(CC(=O)O)c1ccc(Cl)cc1 (racemic) [(±)-baclofen, Baclofen]	−8	9	Q4	0	0%	–	–	–	–
C=CC(N)CCC(=O)O (racemic) [(±)-gamma-vinyl Gaba, Vigabatrin]	8	12	Q4	0	1%	–	–	–	–
NC(Cc1ccc(Cl)cc1)C(=O)O (racemic) [(±)-p-chlorophenylalanine, Fenclonine]	16	5	Q4	0	1%	–	–	–	–
O=c1cc[nH]c(=S)[nH]1 [2-thiouracil]	–	–	Q4	–	1%	-15	7	0	–
CC(O)(CC(=O)O)CC(=O)O [3-Hydroxy-3-Methyl-Glutaric Acid]	–	–	Q4	–	0%	9	8	0	–
CC(=O)Nc1cccc(O)c1 [3-acetamidophenol]	–	–	Q4	–	1%	4	5	0	–
Nc1ccc(C(=O)O)cc1 [4-Aminobenzoic Acid]	–	–	Q4	–	1%	-31	13	1	–
CC(=O)Nc1ccc(C(=O)O)cc1 [4-acetamidobenzoic acid]	–	–	Q4	–	1%	32	42	0	–

SMILES	Fibrin % inhibition ([1]; compounds at 10 μM) [%]	LPS % inhibition [2, 6] [%]	Quadrant (FIG. 5b) [3, 7]	LPS % cell toxicity (primary rat microglia [4]) [%]	Fibrin % cell toxicity (primary rat microglia [5]; [8])	inhibition at 10 µM ([1]; compounds at 10 μM) [%]	inhibition at 10 µM [2, 6] [%]	LPS % cell toxicity (primary rat microglia [4]; rat) [%]	further results
Nc1nc(NC2CC2)c2ncn([C@H]3C=C[C@@H](CO)C3)c2n1 [Abacavir Sulfate]	–	–	Q4	–	1%	-2	3	0	–
CC(=O)NCCCS(=O)(=O)[O-].CC(=O)NCCCS(=O)(=O)[O-].[Ca+2] [Acamprosate Calcium]	12	22	Q4	0	1%	–	–	–	–
CC(=O)OC1CN2CCC1CC2.Cl (stereo not drawn) [Aceclidine Hydrochloride, Aceclidine]	2	0	Q4	0	1%	–	–	–	–
CC(=O)NC(CCC(N)=O)C(=O)O (stereo not drawn) [Aceglutamide]	–	–	Q4	–	1%	36	20	0	–
COc1ccc2c(c1)c(CC(=O)OCC(=O)O)c(C)n2C(=O)c1ccc(Cl)cc1 [Acemetacin]	–	–	Q4	–	1%	-16	17	0	–
CC(=O)CC(c1ccc([N+](=O)[O-])cc1)c1c(O)c2ccccc2oc1=O (stereo not drawn) [Acenocoumarol, Acenocoumarin]	−38	14	Q4	0	0%	–	–	–	–
CC(=O)c1ccc2c(c1)N(CCCN(C)C)c1ccccc1S2 [Acepromazine]	–	–	Q4	–	1%	9	31	1	–
CC(=O)Nc1ccc(OC(=O)c2ccccc2O)cc1 [Acetaminosalol]	–	–	Q4	–	1%	-15	20	1	–
CC(=O)Nc1cc([As](=O)(O)O)ccc1O [Acetarsol]	–	–	Q4	–	0%	-12	13	0	–
CC(=O)NO [Acetohydroxamic Acid]	–	–	Q4	–	0%	-3	12	0	–
CC(=O)Nc1c(I)cc(I)c(C(=O)O)c1I [Acetrizoic acid]	–	–	Q4	–	1%	14	9	0	–
CO[C@H]1O[C@@H]2O[C@@]3(C)CC[C@H]4[C@H](C)CC[C@@H]([C@H]1C)[C@@]24OO3 [Artemether]	–	–	Q4	–	1% and 0%	–	–	0	LPS % inhibition [2, 14]: 0% and 4%
CCCCOc1ccc(C(=O)CCN2CCCCC2)cc1 [Dyclonine]	–	–	–	–	–	–	–	0	LPS % inhibition [2, 14]: 12% and 5%; Quadrant (FIG. 5b) [3, 9]: Q4; Fibrin % cell toxicity (primary rat microglia [5]; [10]): 1%
COc1ccccc1OCC(O)CN1CCN(CC(=O)Nc2c(C)cccc2C)CC1 (stereo not drawn) [Ranolazine, Ranolazine Dihydrochloride]	–	–	–	0	–	–	–	–	LPS % inhibition [2]: 12% and 2%; Quadrant (FIG. 5b) [3, 12]: Q4; Fibrin % cell toxicity (primary rat microglia [5]; [13]): 0% and 1%
CCN(C)C(=O)Oc1cccc([C@H](C)N(C)C)c1 [Rivastigmine]	–	–	–	–	–	–	–	0	inhibition at 10 µM ([2]; 48 h): 5%; Quadrant (FIG. 5b) [3, 12]: Q4; Fibrin % cell toxicity (primary rat microglia [5]; [13]): 1%
